According to PubChem BioAssay AID1053198 (The Scripps Research Institute Molecular Screening Center, 2014):
Calls of active or inactive are those of the source. No rule for the calls is given here.

Test: T. brucei MetRS enzyme inhibitors, late-stage follow-up, biochemical, radioactivity, assay provider, round 2 (AID 1053198)
Conditions: purified enzyme, radiolabel aminoacylation, 120 min, stronger effect = higher value

| Structure (SMILES) | inhibition (at 10 µM) | inhibition (inhibition, at 1 µM) [%] |
| --- | --- | --- |
| CCN(CC)C(=O)C(=O)c1cn(CC(=O)Nc2cc(C)cc(C(F)(F)F)c2)c2ccccc12 | 100% | 96.2 |
| CCN(CC)C(=O)C(=O)c1cn(CC(=O)Nc2cccc(C(F)(F)F)c2)c2cc(OC)ccc12 | 4.41% (inactive) | -4.41 |
| CCN(CC)C(=O)C(=O)c1cn(CC(=O)Nc2cc(Br)cc(C(F)(F)F)c2)c2ccccc12 | 101% | 95.8 |
| CCN(CC)C(=O)C(=O)c1cn(CC(=O)Nc2cc(Cl)cc(C(F)(F)F)c2)c2ccccc12 | 100% | 95.2 |
| CCN(CC)C(=O)C(=O)c1cn(CC(=O)Nc2cc(Oc3ccccc3)cc(C(F)(F)F)c2)c2ccccc12 | 98.3% | 95.6 |
| CCN(CC)C(=O)C(=O)c1cn(CC(=O)Nc2cc(C(F)(F)F)cc(C(F)(F)F)c2)c2ccccc12 | 100% | 90.3 |
